Measurements reported in paper PMC5522071, “Preclinical development of G1T38: A novel, potent and selective inhibitor of cyclin dependent kinases 4/6 for use as an oral antineoplastic in patients with CDK4/6 sensitive tumors” (Oncotarget, 2017).

Experiments:
CDK6/Cyclin D3 = target: T1, CDK6/Cyclin D3 (Homo sapiens, UniProt Q00534); assay type: biochemical; conditions: 12-point dose response, singlicate, at Km for ATP
T1 construct: purchased Nanosyn, Inc. (contract assay)

[1] = 28-day repeat-dose GLP toxicity study; assay type: in vivo; conditions: rat
[2] = Accumulation potential in plasma, 28-day repeat dose; assay type: in vivo, beagle dogs; conditions: Dog, 28-day daily oral treatment
Experimental: Beagle dogs (5/ sex) were dosed once daily for 28 consecutive days via oral gavage. The dose levels were 1, 2.5 and 5 mg/kg/day and administered at a dose volume of 5 mL/kg. Hematology samples (1ml/ time point) were collected in K3EDTA tubes twice pre-test and then on days 7, 14, 21, and 25 during the dosing period and on days 35, and 42 during the recovery period. Complete blood counts were performed and results reported. All studies were conducted utilizing methods and protocols in accordance with IACUC approval at MPI Research (Mattawan, MI).
28-day daily oral treatment
The accumulation ratio (R) was calculated for each animal

in vivo [3] = conditions: po, 100 mg/kg
Experimental: To evaluate the murine PK/PD relationship of G1T38, an ER^+ MCF7 xenograft model was utilized. Compound concentrations were measured in plasma and tumors from tumor-bearing mice given a single oral dose of G1T38 (100 mg/kg). […] To assess the effects of G1T38 on pRB, tumors were harvested and pRB was analyzed by immunoblotting.

CDK7/Cyclin H/ Mat1 = target: T2, CDK7/Cyclin H/ Mat1 (Homo sapiens, UniProt P50613); assay type: biochemical; conditions: 12-point dose response, singlicate, at Km for ATP
T2 construct: purchased Nanosyn, Inc. (contract assay)

JAK2 = JAK2 (Homo sapiens, UniProt O60674); test: JAK2 inhibition; assay type: biochemical
[4] = tested on: RB phosphorylation (Ser807/811) in WM2664 cells; test: Western blot for pRb and total Rb; assay type: cell-based
Experimental: Once phosphorylated, RB dissociates from cell cycle-promoting transcription factors, allowing them to drive the G1 to S-phase transition. Therefore, CDK4/6 inhibition of RB phosphorylation will arrest cells in G1. To assess the effect of G1T38 on RB phosphorylation, WM2664 cells were treated with varying doses of G1T38 for 24 hours. After treatment, cells were harvested and phosphorylation of RB at the Ser807/811 sites was evaluated via immunoblotting. Phosphorylation of RB at Ser807/811 sites first requires binding of CDK4/6 [3] in order to progress into S-phase. […] To determine the kinetics of CDK4/6 inhibition on RB phosphorylation, WM2664 cells were treated with 300 nM G1T38 for 1, 4, 8, 16, and 24 hours.
WM2664 cells were either treated for dose response (3, 10, 30, 100, 300 or 1000 nM) for 24 hours or a time course (1, 4, 8, 16 or 24 hours) with 300 nM G1T38. Whole cell extracts were prepared using 1x radioimmunoprecipitation assay buffer (RIPA) (ThermoFisher) containing 1x HALT® protease and phosphatase inhibitors (ThermoFisher). Total protein concentration was determined by using the bicinchoninic acid (BCA) Protein Assay Kit (PIERCE/ ThermoFisher), according to manufacturer's instructions. 20 micrograms of protein were heat denatured for 10 minutes at 70°C and resolved by Novex® NuPAGE® SDS-PAGE gel system (ThermoFisher) at 200 volts, constant current and transferred to 0.45 μm nitrocellulose membrane (Life Technologies) in 1 x Transfer buffer (Life Technologies) plus 20% methanol (Sigma-Aldrich (St. Louis, MO) by electroblotting at 35 volts, constant current. Membranes were blocked in LiCor Membrane Blocking Buffer (Lincoln, NE) and incubated overnight with either rabbit anti-pRb (Ser807/811, CST-9308) antibody (Cell Signaling Technology (Danvers, MA) at a 1:500 dilution or mouse anti-Rb (CST-9309) at a 1:2,000 dilution and mouse α-tubulin (CST-3873) antibody (Cell Signaling Technology) at a 1:1,000 dilution, as a loading control. […] Blots were incubated for one hour, washed and imaged using LiCor ImageStudio software (Version 4.0.21).

MCF7 murine tumors = test: Plasma exposure versus % TGI, nonlinear regression; assay type: in vivo, mice; conditions: AUC 0-last single dose vs TGI, MCF7, 28 days
ER+ MCF7 xenograft = test: MCF-7 breast cancer xenograft model; assay type: in vivo, mice; conditions: for tumor growth inhibition (TGI): after 27 days of treatment
Experimental: Tumors were measured every 3 to 4 days during treatment for up to 20 days post-treatment. […] South Texas Accelerated Research Therapeutics (START; San Antonio, Texas) evaluated the antitumor activity of G1T38 in a START Cell-Based Xenograft (START-CBX) tumor model, MCF-7, representing human breast cancer. Data collected from this efficacy study included animal weights, observations, and tumor dimensions. This information was used to determine agent tolerability based on weight change and gross physiologic changes, and anticancer activity based on tumor growth inhibition or regression. Study endpoint was Day 60. MCF-7 cells were harvested from culture and injected into immune-deficient mice and the study initiated at a mean tumor volume of approximately 150-250 mm^3. […] Tumor growth inhibition (%TGI) was calculated using the following equation: %TGI=(1-(((TVtmtfinal-TVtmtinitial))/((AVERAGE(TVctlfinal))-(AVERAGE(TVctlinital)))))*100.

in vivo [5] = test: in vivo
Experimental: Supplementary Table 2: Elimination Half-Lives of G1T38
T1/2 (hrs) Mouse Rat Dog Human
Elimination half-lives (T1/2) were determined for G1T38 (in-house results and calculated as part of NCT02821624) and
In lower order species, mice and rats, values are similar between both compounds, however in dogs and […]

T1 sequence (Q00534 whole entry): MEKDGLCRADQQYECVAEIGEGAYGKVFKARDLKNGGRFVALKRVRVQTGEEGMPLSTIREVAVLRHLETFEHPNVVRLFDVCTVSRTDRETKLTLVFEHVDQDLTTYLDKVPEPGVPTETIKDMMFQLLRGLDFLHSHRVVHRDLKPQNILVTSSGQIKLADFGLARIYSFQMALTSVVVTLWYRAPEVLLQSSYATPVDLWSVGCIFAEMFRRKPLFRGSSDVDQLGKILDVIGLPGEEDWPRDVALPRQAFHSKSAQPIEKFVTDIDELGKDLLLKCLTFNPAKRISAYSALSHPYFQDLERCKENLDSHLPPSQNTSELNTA
T1 sequence (P30281 whole entry partner): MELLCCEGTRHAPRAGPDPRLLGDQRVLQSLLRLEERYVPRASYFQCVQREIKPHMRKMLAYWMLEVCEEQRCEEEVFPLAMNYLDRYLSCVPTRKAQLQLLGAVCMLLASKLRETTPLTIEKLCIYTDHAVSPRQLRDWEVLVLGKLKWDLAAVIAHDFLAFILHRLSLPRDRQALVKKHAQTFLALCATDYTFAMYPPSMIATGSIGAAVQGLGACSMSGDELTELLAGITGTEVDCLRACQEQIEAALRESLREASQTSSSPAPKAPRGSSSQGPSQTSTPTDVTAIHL
T2 sequence (P50613 whole entry): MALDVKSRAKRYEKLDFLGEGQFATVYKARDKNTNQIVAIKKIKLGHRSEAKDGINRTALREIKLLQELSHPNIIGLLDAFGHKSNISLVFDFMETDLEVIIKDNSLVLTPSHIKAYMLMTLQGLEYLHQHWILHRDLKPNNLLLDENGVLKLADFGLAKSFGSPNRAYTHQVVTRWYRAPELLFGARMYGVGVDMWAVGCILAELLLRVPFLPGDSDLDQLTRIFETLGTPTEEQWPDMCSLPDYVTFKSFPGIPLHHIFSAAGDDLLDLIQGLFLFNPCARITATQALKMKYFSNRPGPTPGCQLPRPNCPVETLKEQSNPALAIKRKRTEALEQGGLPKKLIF
T2 sequence (P51946 whole entry partner): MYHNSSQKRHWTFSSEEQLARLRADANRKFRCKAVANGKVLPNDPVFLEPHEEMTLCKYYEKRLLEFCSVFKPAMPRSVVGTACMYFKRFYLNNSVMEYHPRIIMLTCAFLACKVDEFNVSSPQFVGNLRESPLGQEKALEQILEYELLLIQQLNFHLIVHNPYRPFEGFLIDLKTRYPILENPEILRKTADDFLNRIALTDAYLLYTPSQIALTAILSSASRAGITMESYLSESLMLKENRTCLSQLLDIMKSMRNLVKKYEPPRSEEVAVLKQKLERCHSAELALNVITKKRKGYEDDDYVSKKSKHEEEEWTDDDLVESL
T2 sequence (P51948 whole entry partner): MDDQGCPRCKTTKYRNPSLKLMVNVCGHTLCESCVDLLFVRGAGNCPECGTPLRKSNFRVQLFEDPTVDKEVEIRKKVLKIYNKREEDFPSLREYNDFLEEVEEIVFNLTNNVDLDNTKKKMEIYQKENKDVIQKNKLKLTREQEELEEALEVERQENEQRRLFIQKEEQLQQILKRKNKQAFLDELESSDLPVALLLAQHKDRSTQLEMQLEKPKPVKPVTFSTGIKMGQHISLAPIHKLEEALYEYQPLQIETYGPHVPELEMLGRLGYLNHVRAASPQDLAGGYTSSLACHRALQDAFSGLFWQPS
JAK2, sequence (O60674 whole entry, species assumed): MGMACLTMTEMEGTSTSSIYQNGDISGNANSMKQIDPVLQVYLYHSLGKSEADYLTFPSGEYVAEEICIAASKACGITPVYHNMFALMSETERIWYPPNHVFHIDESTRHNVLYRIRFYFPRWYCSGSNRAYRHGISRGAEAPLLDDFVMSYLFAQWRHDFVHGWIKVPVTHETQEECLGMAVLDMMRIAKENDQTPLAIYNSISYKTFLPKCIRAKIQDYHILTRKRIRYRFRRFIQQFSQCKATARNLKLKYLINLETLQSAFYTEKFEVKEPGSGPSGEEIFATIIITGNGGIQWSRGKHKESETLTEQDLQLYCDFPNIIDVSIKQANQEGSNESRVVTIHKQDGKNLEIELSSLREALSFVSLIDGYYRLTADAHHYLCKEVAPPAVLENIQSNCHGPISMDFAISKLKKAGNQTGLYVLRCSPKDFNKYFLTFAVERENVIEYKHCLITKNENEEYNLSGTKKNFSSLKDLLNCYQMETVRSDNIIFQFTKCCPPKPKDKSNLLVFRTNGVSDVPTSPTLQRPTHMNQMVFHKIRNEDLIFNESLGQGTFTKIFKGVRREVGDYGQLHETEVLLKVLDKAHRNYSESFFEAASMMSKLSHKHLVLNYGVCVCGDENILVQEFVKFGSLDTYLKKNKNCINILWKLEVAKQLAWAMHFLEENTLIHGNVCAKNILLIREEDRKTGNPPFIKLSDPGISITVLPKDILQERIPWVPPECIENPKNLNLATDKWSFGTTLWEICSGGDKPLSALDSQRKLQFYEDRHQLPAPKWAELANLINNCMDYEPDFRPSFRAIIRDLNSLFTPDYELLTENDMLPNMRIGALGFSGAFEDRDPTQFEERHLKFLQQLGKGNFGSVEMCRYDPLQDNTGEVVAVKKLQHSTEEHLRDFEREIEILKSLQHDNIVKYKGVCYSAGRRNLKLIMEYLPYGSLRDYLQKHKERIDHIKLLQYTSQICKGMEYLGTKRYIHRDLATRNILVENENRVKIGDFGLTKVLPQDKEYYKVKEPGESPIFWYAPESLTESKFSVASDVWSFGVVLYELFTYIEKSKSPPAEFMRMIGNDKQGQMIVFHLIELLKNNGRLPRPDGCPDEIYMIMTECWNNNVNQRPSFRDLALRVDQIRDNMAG

CC(C)N1CCN(c2ccc(Nc3ncc4cc5n(c4n3)C3(CCCCC3)CNC5=O)nc2)CC1.Cl.Cl [G1T38, 2′-((5-(4-isopropylpiperazin-1-yl)pyridin-2-yl)amino)-7′, 8′dihydro-6′Hspiro[cyclohexane1,9′ pyrazino[1′,2′:1,5]pyrrolo[2,3-d]pyrimidin]-6′-one di-hydrochloride]
IC50 (CDK6/Cyclin D3): 2 nM | findings on oral administration [1]: reduction of bone marrow cellularity and lymphocyte depletion | Mean Accumulation Ratio (AUC0-24hr Day 28 ÷ Day 1) ([2]; 1 mg/kg): 1.08 | Mean Accumulation Ratio (AUC0-24hr Day 28 ÷ Day 1) ([2]; 2.5 mg/kg): 1.3 | Mean Accumulation Ratio (AUC0-24hr Day 28 ÷ Day 1) ([2]; 5 mg/kg): 1.14 | Kp (in vivo [3]; C57BL/6, mouse): 17 | Kp at 24 h (in vivo [3]; C57BL/6, mouse): > 100 | concentration at 48 h (in vivo [3]; C57BL/6, mouse): ~65 ng/mL | drug in the plasma (in vivo [3]; mouse): no drug was detectable | IC50 (CDK7/Cyclin H/ Mat1): 2400 nM | IC50 (JAK2): > 500 nM | time to near complete inhibition of RB phosphorylation post-treatment ([4]; 300 nM): ≤ 16 h | time to reduced RB phosphorylation post-treatment ([4]; 300 nM): ≤ 1 h | inhibition of RB phosphorylation (figure legend) ([4]; 300 nM exposure, 24 hours): complete inhibition | inhibition of RB phosphorylation compared to vehicle controls ([4]; 30-1000 nM, 24 hours): complete inhibition | EC50 (plasma exposure vs % TGI) lower than palbociclib (MCF7 murine tumors): 3.8 fold | tumor growth inhibition (TGI) (ER+ MCF7 xenograft; 10 mg/kg once daily oral): approximately 12% | tumor response, combination with fulvestrant (ER+ MCF7 xenograft; 50 mg/kg G1T38 + 5 mg fulvestrant, 28 days): near complete, sustained tumor regression | tumor response, combination with tamoxifen (ER+ MCF7 xenograft; 50 mg/kg G1T38 + 20 mg/kg tamoxifen, 28 days): near complete, sustained tumor regression | efficacy compared with palbociclib (ER+ MCF7 xenograft; 50 mg/kg daily oral, 28 days): significantly more efficacious than palbociclib | tumor growth inhibition (TGI) (ER+ MCF7 xenograft; 50 mg/kg once daily oral): ~74% | time to tumor regression (ER+ MCF7 xenograft; 100 mg/kg daily oral): ≤ 10 days | tumor growth inhibition (TGI) (ER+ MCF7 xenograft; 100 mg/kg once daily oral): ~90% | efficacy, combination with GDC0941 (ER+ MCF7 xenograft; G1T38 25 or 50 mg/kg + GDC0941 100 mg/kg): greater efficacy than any of the treatments alone | tumor response, combination with GW5638 (ER+ MCF7 xenograft; G1T38 25 or 50 mg/kg + GW5638 25 mg/kg): sustained tumor regression | TGI as single agents (GDC0941 study) (ER+ MCF7 xenograft; G1T38 25 or 50 mg/kg alone, GDC0941 100 mg/kg alone): modest TGI | TGI as single agents (GW5638 study) (ER+ MCF7 xenograft; G1T38 25 or 50 mg/kg alone, GW5638 25 mg/kg alone): modest TGI | half-life (in vivo [5]; dog): 10.5 to 14.7 h | half-life (in vivo [5]; mouse): 2.4 to 5.1 h
